How the values were obtained:
inflammatory monocytes = assay type: in vivo, mice; details: chronic S. aureus infected wounds; i.v. MSC; compared to untreated control animals
Protocol: Studies were done to investigate the impact of activated MSC on host immune responses, including monocyte, macrophage, and neutrophil responses. The numbers of monocytes migrating into wound tissues was determined by use of reporter mice whose inflammatory monocytes all expressed GFP. Wounds from S. aureus infected mice were immunostained for detection of inflammatory monocytes.

[1] = tested on: highly antibiotic-resistant strains of bacteria; assay: In vitro killing of highly antibiotic-resistant bacteria by activated MSC and antibiotic; assay type: cell-based; details: triplicate cultures, assessed 4 h later; antibiotic at very high doses
Protocol: Using a similar experimental design as described in Example 9, supra, highly antibiotic-resistant strains of bacteria were incubated with activated MSC alone, antibiotics alone (cefazolin (cefa)), or antibiotics+activated MSC in triplicate cultures and bacterial killing assessed 4 h later.

Molecule	number of monocytes infiltrating the wounds (inflammatory monocytes)	bacterial killing [1]
amoxicillin-clavulanic acid [antibiotics]	relatively sparse population of monocytes	–
Cc1nnc(SCC2=C(C(=O)O)N3C(=O)[C@@H](NC(=O)Cn4cnnn4)[C@H]3SC2)s1 [cefazolin]	–	little bacterial killing
